Data taken from patent US20230277630A1, “METHODS AND COMPOSITIONS FOR TREATING AMYOTROPHIC LATERAL SCLEROSIS” (Amylyx Pharmaceuticals, Inc., priority 2022, published 2023).
Several values for one entry are separate records, joined by “and”; a condition that tells them apart may be missing. Identical values can stand only once.

Legend:
OCT2 = target: T1, OCT2 (Homo sapiens, UniProt O15244); assay: OCT2 inhibitor (IC50) assessment, MPP+ uptake in transfected HEK cells
T1 sequence (O15244 1-555): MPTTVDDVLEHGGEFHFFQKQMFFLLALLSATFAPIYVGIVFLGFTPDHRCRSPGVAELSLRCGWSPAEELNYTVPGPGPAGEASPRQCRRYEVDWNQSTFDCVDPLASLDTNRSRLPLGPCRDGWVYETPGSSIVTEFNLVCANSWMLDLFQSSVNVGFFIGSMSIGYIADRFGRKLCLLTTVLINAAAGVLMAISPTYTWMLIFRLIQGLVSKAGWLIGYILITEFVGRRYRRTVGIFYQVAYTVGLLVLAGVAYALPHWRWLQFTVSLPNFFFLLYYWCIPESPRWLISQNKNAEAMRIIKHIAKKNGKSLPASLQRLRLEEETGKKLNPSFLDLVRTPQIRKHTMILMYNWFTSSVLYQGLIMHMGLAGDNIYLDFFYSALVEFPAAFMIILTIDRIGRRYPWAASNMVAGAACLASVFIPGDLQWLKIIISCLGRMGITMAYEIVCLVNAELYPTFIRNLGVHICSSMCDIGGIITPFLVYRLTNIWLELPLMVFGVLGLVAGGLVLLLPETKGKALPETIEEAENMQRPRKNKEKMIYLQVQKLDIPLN

P-gp and BCRP = P-gp and BCRP substrate assessment, bidirectional permeability in C2BBe1 cells; details: C2BBe1 cells, 10 μM probe; for recovery at 10 μM / Papp A→B at 10 µM / Papp B→A at 10 µM: human; for Papp A→B at 10 µM / Papp B→A at 10 µM: Caco-2, pH 7.4, probe digoxin (P-gp), cladribine (BCRP); for Papp A→B at 10 µM: AP-to-BL Papp; for Papp B→A at 10 µM: BL-to-AP Papp
Experimental: The P-gp and BCRP substrate assessment was conducted in C2BBe1 cell monolayers. […] LY was co-dosed with each dosing solution at a nominal concentration of 200 μM.
The cell culture medium was aspirated, and the cell monolayers were rinsed once with HBSSg_7.4. […] For receiver samples, aliquots (300 μL) were taken at pre-selected time points. […] For donor samples, aliquots (50 μL) were taken at pre-selected time points without replacement.

MATE1 = target: T2, MATE1 (Homo sapiens, UniProt Q96FL8); assay: MATE1 inhibitor (IC50) assessment, metformin uptake in transfected HEK cells
T2 sequence (Q96FL8 1-570): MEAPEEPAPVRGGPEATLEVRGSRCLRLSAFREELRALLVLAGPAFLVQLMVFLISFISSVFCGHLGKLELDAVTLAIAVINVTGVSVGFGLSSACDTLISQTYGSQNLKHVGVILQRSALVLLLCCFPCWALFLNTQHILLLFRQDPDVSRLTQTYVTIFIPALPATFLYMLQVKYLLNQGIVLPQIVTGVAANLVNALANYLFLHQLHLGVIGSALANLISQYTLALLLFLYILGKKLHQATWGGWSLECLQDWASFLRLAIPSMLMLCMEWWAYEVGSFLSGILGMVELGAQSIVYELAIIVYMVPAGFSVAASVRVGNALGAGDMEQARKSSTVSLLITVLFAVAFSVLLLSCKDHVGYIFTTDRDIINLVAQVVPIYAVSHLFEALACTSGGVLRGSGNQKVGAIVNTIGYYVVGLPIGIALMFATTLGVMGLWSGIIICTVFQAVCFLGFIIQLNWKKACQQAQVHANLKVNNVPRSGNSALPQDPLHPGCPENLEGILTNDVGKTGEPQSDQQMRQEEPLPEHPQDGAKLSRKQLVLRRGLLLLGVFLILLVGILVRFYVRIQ

MATE2K = MATE2K (Homo sapiens, UniProt Q86VL8); assay: MATE2K inhibitor (IC50) assessment, metformin uptake in transfected HEK cells
[1] = CYP reaction phenotyping: CYP control (negative control without CYP enzymes); details: 20 min, pH 7.4
Experimental: The reaction was initiated by the addition of NADPH, followed by incubation at 37° C.

[2] = 5 μM MPP+ alone, 2 min, replicates 1, 2 and Average
[3] = batch used with Sol_1, Sol_3, and Sol_4, single replicates
[4] = batch used with Sol_2, single replicates
[5] = 50 μM Metformin alone, 10 min, HBSSg_8.5, replicates and Average
[6] = absence of TUDCA and PB or positive inhibitor
[7] = 50 μM Metformin alone, 10 min, HBSSg_8.5, replicates 1, 2 and Average

Chain of MATE2K (Q86VL8 1-566 isoform Q86VL8-3): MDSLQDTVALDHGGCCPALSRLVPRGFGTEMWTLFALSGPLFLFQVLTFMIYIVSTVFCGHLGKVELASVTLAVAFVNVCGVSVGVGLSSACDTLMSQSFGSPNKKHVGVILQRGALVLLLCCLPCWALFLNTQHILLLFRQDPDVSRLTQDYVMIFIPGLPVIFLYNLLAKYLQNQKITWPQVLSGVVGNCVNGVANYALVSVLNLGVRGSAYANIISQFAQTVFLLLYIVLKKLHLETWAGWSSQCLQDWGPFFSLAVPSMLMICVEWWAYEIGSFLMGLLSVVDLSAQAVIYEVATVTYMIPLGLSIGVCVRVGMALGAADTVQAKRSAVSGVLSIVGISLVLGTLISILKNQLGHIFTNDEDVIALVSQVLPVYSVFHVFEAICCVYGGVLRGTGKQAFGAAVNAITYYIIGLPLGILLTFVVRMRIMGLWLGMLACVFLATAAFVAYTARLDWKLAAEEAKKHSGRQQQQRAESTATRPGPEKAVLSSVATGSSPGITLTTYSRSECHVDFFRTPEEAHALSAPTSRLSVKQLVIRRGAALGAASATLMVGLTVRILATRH

C[n+]1ccc(-c2ccccc2)cc1 [MPP+, 1-methyl-4-phenylpyridinium]
Net Influx Rate of MPP+ (OCT2) (OCT2; 5 μM MPP+ alone): 847 pmol/mg protein/minute | influx rate ratio of MPP+ (OCT2 over vector control) (OCT2; 5 μM MPP+ alone, 2 min): 48.9 | Influx Rate of MPP+, OCT2-HEK Cells (OCT2; [2]): 896 pmol/mg protein/minute and 833 pmol/mg protein/minute | Influx Rate of MPP+, Vector Control Cells (OCT2; [2]): 19.0 pmol/mg protein/minute and 16.3 pmol/mg protein/minute | influx rate ratio of MPP+ (OCT2 over vector control) (OCT2; absence of TUDCA and PB or imipramine): 48.9

C[C@H]1O[C@@H](O[C@H]2[C@@H](O)C[C@H](O[C@H]3[C@@H](O)C[C@H](O[C@H]4CC[C@@]5(C)[C@H](CC[C@@H]6[C@@H]5C[C@@H](O)[C@]5(C)[C@@H](C7=CC(=O)OC7)CC[C@]65O)C4)O[C@@H]3C)O[C@@H]2C)C[C@H](O)[C@@H]1O [digoxin]
AP-to-BL Papp (P-gp and BCRP; [3]): 0.350 10^−6 cm/s and 0.234 10^−6 cm/s | AP-to-BL Recovery (P-gp and BCRP; [3]): 95.3% | BL-to-AP Papp (P-gp and BCRP; [3]): 14.6 10^−6 cm/s and 11.2 10^−6 cm/s | BL-to-AP Recovery (P-gp and BCRP; [3]): 94.9% and 83.1% | AP-to-BL Papp (P-gp and BCRP; [4]): 0.381 10^−6 cm/s and 0.298 10^−6 cm/s | AP-to-BL Recovery (P-gp and BCRP; [4]): 92.4% | BL-to-AP Papp (P-gp and BCRP; [4]): 12.1 10^−6 cm/s and 12.8 10^−6 cm/s | BL-to-AP Recovery (P-gp and BCRP; [4]): 96.7% and 90.2% | recovery at 10 μM (P-gp and BCRP; Caco-2, pH 7.4, AP-to-BL Recovery, batch used with Sol_1, Sol_3, and Sol_4, Average): 89.5% | recovery at 10 μM (P-gp and BCRP; Caco-2, pH 7.4, AP-to-BL Recovery, batch used with Sol_1, Sol_3, and Sol_4, single replicates): 90.9% | recovery at 10 μM (P-gp and BCRP; Caco-2, pH 7.4, AP-to-BL Recovery, batch used with Sol_2, Average): 86.3% | recovery at 10 μM (P-gp and BCRP; Caco-2, pH 7.4, AP-to-BL Recovery, batch used with Sol_2, single replicates): 77.9% | recovery at 10 μM (P-gp and BCRP; Caco-2, pH 7.4, BL-to-AP Recovery, batch used with Sol_1, Sol_3, and Sol_4, Average): 87.4% | recovery at 10 μM (P-gp and BCRP; Caco-2, pH 7.4, BL-to-AP Recovery, batch used with Sol_1, Sol_3, and Sol_4, single replicates): 84.1% | recovery at 10 μM (P-gp and BCRP; Caco-2, pH 7.4, BL-to-AP Recovery, batch used with Sol_2, Average): 92.1% | recovery at 10 μM (P-gp and BCRP; Caco-2, pH 7.4, BL-to-AP Recovery, batch used with Sol_2, single replicates): 89.5% | Papp A→B at 10 µM (P-gp and BCRP; [3]): 0.326 ×10⁻⁶ cm/s | Papp A→B at 10 µM (P-gp and BCRP; batch used with Sol_2, Average): 0.334 ×10⁻⁶ cm/s | Papp A→B at 10 µM (P-gp and BCRP; [4]): 0.323 ×10⁻⁶ cm/s | Papp B→A at 10 µM (P-gp and BCRP; batch used with Sol_1, Sol_3, and Sol_4, Average): 12.6 ×10⁻⁶ cm/s | Papp B→A at 10 µM (P-gp and BCRP; [3]): 12.1 ×10⁻⁶ cm/s | Papp B→A at 10 µM (P-gp and BCRP; batch used with Sol_2, Average): 12.8 ×10⁻⁶ cm/s | Papp B→A at 10 µM (P-gp and BCRP; [4]): 13.5 ×10⁻⁶ cm/s

CN/C(=N/CCSCc1nc[nH]c1C)NC#N [cimetidine]
Percentage Inhibition of MATE1 (MATE1; 50 μM Metformin + 100 μM Cimetidine): 99.2% | inhibition of metformin uptake in MATE1-transfected cells (MATE1; known inhibitor): 99.2%

CN(C)C(=N)N=C(N)N [metformin]
Net Influx Rate of Metformin (MATE1) (MATE1; 50 μM Metformin alone): 572 pmol/mg protein/minute | influx rate ratio of metformin (MATE1 over vector control) (MATE1; 50 μM Metformin alone): 43.4 | Influx Rate of Metformin, MATE1-HEK Cells (MATE1; [5]): 515 pmol/mg protein/minute and 656 pmol/mg protein/minute | Influx Rate of Metformin, Vector Control Cells (MATE1; [5]): 15.6 pmol/mg protein/minute and 11.3 pmol/mg protein/minute | influx rate ratio of metformin (MATE1 over vector control) (MATE1; [6]): 43.4 | Net Influx Rate of Metformin (MATE2K) (MATE2K; 50 μM Metformin alone): 36.1 pmol/mg protein/minute | influx rate ratio of metformin (MATE2K over vector control) (MATE2K; 50 μM Metformin alone): 2.70 | Influx Rate of Metformin, MATE2K HEK Cells (MATE2K; [7]): 54.5 pmol/mg protein/minute and 60.2 pmol/mg protein/minute | Influx Rate of Metformin, Vector Control Cells (MATE2K; [7]): 19.6 pmol/mg protein/minute and 22.8 pmol/mg protein/minute | influx rate ratio of metformin (MATE2K over vector control) (MATE2K; [6]): 2.70

CCN(CC)Cc1cc(Nc2ccnc3cc(Cl)ccc23)ccc1O [Amodiaquine]
Measured Metabolite [1]: 0 µM
